One assay deals with T1, human recombinant HDAC1 (Homo sapiens, UniProt Q13547).
T1 construct: purchased Enzo Life Science BML-SE456
The assay can be described thus: HDAC1 enzyme activity inhibition assay (HDAC Fluorimetric Drug Discovery Kit). The assay is classed as biochemical. The conditions noted are these: human recombinant HDAC1, Fluor de Lys substrate 10 μM, 30° C. 60 minutes. As to the method:
In order to examine the HDAC6 selectivity of the compounds of formula I of the present invention by HDAC1 and HDAC6 enzymatic activity inhibition assays, an experiment was performed using a conventional substance as a control.
HDAC enzyme activity was measured using a HDAC Fluorimetric Drug Discovery Kit (BML-AK511, 516, Enzo Life Science). For the HDAC1 enzyme activity test, human recombinant HDAC1 (BML-SE456) was used as an enzyme source, and Fluor de Lys®-“SIRT1 (BNL-KI177) was used as a substrate. A 5-fold dilution of the compound was seeded into a 96-well plate, and then 0.3 μg of the enzyme and 10 μM of the substrate were added to each well of the plate and allowed to react at 30° C. for 60 minutes. Then, Fluor de Lys®-Developer II (BML-KI176) was added thereto and allowed to react for 30 minutes, after which the fluorescence value (Ex 360, Em 460) was measured using a multi-plate reader (Flexstation 3, Molecular Device). The HDAC6 enzyme was tested using human recombinant HDAC6 (382180) (Calbiochem) according to the same protocol as the HDAC1 enzyme activity test method. Based on the resulting values, each IC5, value was calculated using GraphPad Prism4.0 program.

For the next assay, the target named is T2, human recombinant HDAC6 (Homo sapiens, UniProt Q9UBN7).
T2 construct: purchased Calbiochem 382180
T2 sequence (Q9UBN7 1-1215): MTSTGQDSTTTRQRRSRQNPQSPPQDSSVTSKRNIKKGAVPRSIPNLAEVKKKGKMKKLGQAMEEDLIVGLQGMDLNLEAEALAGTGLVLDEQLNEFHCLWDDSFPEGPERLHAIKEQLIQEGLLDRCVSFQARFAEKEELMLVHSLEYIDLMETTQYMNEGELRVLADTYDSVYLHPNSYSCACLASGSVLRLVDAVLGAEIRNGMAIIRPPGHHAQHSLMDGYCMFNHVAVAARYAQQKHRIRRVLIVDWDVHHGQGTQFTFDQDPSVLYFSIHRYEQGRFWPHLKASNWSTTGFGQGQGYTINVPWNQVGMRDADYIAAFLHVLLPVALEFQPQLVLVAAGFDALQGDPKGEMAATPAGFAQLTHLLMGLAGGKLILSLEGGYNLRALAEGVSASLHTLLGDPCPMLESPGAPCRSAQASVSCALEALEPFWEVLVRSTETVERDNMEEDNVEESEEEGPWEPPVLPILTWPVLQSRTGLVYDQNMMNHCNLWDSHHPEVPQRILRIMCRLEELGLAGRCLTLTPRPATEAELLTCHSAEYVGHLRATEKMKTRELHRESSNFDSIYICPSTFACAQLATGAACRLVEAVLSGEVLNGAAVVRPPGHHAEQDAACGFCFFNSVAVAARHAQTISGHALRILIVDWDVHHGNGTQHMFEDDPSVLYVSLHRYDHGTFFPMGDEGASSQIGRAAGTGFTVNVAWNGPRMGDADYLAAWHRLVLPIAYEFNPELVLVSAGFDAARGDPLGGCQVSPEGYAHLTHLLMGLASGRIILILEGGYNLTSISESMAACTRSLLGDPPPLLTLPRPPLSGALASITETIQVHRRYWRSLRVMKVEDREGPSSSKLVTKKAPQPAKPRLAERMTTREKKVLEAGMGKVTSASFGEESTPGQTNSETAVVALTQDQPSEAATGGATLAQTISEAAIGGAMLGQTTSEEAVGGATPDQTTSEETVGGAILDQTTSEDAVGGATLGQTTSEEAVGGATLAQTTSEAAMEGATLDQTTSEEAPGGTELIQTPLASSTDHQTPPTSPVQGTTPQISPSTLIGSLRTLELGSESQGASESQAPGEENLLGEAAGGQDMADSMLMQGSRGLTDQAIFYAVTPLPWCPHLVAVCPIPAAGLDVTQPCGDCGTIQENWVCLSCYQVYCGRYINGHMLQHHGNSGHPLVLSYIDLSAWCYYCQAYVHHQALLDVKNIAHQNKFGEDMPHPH
The assay can be described thus: HDAC6 enzyme activity inhibition assay (HDAC Fluorimetric Drug Discovery Kit). The assay is classed as biochemical. Particulars: for HDAC6 selectivity (fold): HDAC6 over HDAC1; for IC50: human recombinant HDAC6, same protocol as HDAC1, read-out: HDAC6. Put shortly:
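Human recombinant HDAC1 or HDAC6 (0.3 μg) reacted with 10 μM Fluor de Lys-SIRT1 substrate and 5-fold compound dilutions for 60 min at 30 °C. Developer II added for 30 min, fluorescence read at Ex 360/Em 460; IC50 calculated from the readings.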

T1 sequence (Q13547 whole entry): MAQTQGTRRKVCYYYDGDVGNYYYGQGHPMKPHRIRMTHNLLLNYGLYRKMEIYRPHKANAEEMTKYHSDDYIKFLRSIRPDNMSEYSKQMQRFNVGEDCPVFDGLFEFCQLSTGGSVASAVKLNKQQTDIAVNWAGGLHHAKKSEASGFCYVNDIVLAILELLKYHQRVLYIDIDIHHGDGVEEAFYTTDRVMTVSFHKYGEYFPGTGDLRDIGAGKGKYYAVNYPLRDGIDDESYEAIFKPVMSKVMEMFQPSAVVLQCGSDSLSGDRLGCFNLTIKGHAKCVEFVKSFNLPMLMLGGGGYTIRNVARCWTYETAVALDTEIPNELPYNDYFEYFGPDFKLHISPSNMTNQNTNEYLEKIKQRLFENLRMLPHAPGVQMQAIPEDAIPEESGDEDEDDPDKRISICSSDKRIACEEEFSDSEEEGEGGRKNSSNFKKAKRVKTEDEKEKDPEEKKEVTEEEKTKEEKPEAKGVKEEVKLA

Regarding `O=C(N1CCS(=O)(=O)CC1)N(Cc1ccc(-c2nnc(C(F)(F)F)o2)cc1)c1ccc(-c2ccc3c(c2)OCO3)cc1` [Compound 21493, N-(4-(benzo[d][1,3]dioxol-5-yl)phenyl)-N-(4-(5-(trifluoromethyl)-1,3,4-oxadiazol-2-yl)benzyl)thiomorpholine-4-carboxamide 1,1-dioxide], the IC50 on human recombinant HDAC1 is 1.74 µM. In addition, on human recombinant HDAC6, the “HDAC6 selectivity (fold)” value stood at 6 fold and the IC50 was 0.313 µM.

As to `O=C(N1CCS(=O)(=O)CC1)N(Cc1ccc(-c2nnc(C(F)(F)F)o2)cc1F)c1ccc(-c2cccnc2)cc1` [Compound 21517, N-(2-fluoro-4-(5-(trifluoromethyl)-1,3,4-oxadiazol-2-yl)benzyl)-N-(4-(pyridin-3-yl)phenyl)thiomorpholine-4-carboxamide 1,1-dioxide], at human recombinant HDAC1, the IC50 was found to be 2.92 µM. At human recombinant HDAC6, the “HDAC6 selectivity (fold)” value is on record as 31 fold and the IC50 turned out to be 0.093 µM.

`O=C(N1CCS(=O)(=O)CC1)N(Cc1ccc(-c2nnc(C(F)(F)F)o2)cc1F)c1ccc(-c2ccncc2)cc1` [Compound 21519, N-(2-fluoro-4-(5-(trifluoromethyl)-1,3,4-oxadiazol-2-yl)benzyl)-N-(4-(pyridin-4-yl)phenyl)thiomorpholine-4-carboxamide 1,1-dioxide]: the IC50 is 2.65 µM on human recombinant HDAC1 and 0.131 µM at human recombinant HDAC6. For the same compound, on human recombinant HDAC6, the “HDAC6 selectivity (fold)” value was 20 fold.

On to `O=C(N1CCS(=O)(=O)CC1)N(Cc1ccc(-c2nnc(C(F)(F)F)o2)cc1F)c1ccc2c(c1)CCO2` [Compound 21543, N-(2,3-dihydrobenzofuran-5-yl)-N-(2-fluoro-4-(5-(trifluoromethyl)-1,3,4-oxadiazol-2-yl)benzyl)thiomorpholine-4-carboxamide 1,1-dioxide], for which the IC50 on human recombinant HDAC1 was found to be 4.75 µM. Also, at human recombinant HDAC6, the “HDAC6 selectivity (fold)” value worked out at 64 fold and the IC50 stood at 0.073 µM.

Consider `Cn1ncc2ccc(N(Cc3ccc(-c4nnc(C(F)(F)F)o4)cc3F)C(=O)N3CCS(=O)(=O)CC3)cc21` [Compound 21545, N-(2-fluoro-4-(5-(trifluoromethyl)-1,3,4-oxadiazol-2-yl)benzyl)-N-(1-methyl-1H-indazol-6-yl)thiomorpholine-4-carboxamide 1,1-dioxide], for which the IC50 on human recombinant HDAC1 amounted to 4.44 µM. Moreover, on human recombinant HDAC6, the “HDAC6 selectivity (fold)” value turned out to be 85 fold and the IC50 came out at 0.052 µM.

As for `CCN1CCN(C(=O)N(Cc2ccc(-c3nnc(C(F)(F)F)o3)cc2F)c2ccc(F)c(Cl)c2)CC1` [Compound 21592, N-(3-chloro-4-fluorophenyl)-4-ethyl-N-(2-fluoro-4-(5-(trifluoromethyl)-1,3,4-oxadiazol-2-yl)benzyl)piperazine-1-carboxamide], the values for the IC50 at human recombinant HDAC1 and on human recombinant HDAC6 were 8.28 µM and 0.1 µM, respectively. Moreover, the “HDAC6 selectivity (fold)” value at human recombinant HDAC6 was 100 fold.

As for `CCN1CCN(C(=O)N(Cc2ccc(-c3nnc(C(F)F)o3)cc2F)c2ccc(F)cc2Cl)CC1` [Compound 21650, N-(2-chloro-4-fluorophenyl)-N-(4-(5-(difluoromethyl)-1,3,4-oxadiazol-2-yl)-2-fluorobenzyl)-4-ethylpiperazine-1-carboxamide], the IC50 on human recombinant HDAC1 turned out to be 36.1 µM; on human recombinant HDAC6, 0.077 µM. In addition, the “HDAC6 selectivity (fold)” value on human recombinant HDAC6 came to 468 fold.

With `CN(C)[C@H]1CCN(C(=O)N(Cc2ccc(-c3nnc(C(F)F)o3)cc2F)c2ccc(F)cc2Cl)C1` [Compound 21651, (S)—N-(2-chloro-4-fluorophenyl)-N-(4-(5-(difluoromethyl)-1,3,4-oxadiazol-2-yl)-2-fluorobenzyl)-3-(dimethylamino)pyrrolidine-1-carboxamide], on human recombinant HDAC1, the IC50 is 49.2 µM. On human recombinant HDAC6, the “HDAC6 selectivity (fold)” value came to 806 fold and the IC50 stood at 0.061 µM.

On to `CN(C)[C@@H]1CCN(C(=O)N(Cc2ccc(-c3nnc(C(F)F)o3)cc2F)c2ccc(F)cc2Cl)C1` [Compound 21652, (R)—N-(2-chloro-4-fluorophenyl)-N-(4-(5-(difluoromethyl)-1,3,4-oxadiazol-2-yl)-2-fluorobenzyl)-3-(dimethylamino)pyrrolidine-1-carboxamide], for which, at human recombinant HDAC1, the IC50 worked out at 36.5 µM. In addition, on human recombinant HDAC6, the “HDAC6 selectivity (fold)” value came out at 787 fold and the IC50 stood at 0.046 µM.

Source of the values: US10717716B2, “1,3,4-oxadiazole derivative compounds as histone deacetylase 6 inhibitor, and the pharmaceutical composition comprising the same” (Chong Kun Dang Pharmaceutical Corp., priority 2015, dated 2020).
